Results as given in article PMC12858405, “Ideal efficacy photoswitching for chromocontrol of TRPC4/5 channel functions in live tissues” (Nature Chemical Biology, 2026).
Values belong to the molecule of their own block, whether it stands above or below them.

How the values were obtained:
[1] = molecular target: T1, heteromeric TRPC5:TRPC1 (Homo sapiens, UniProt Q9UL62); parameters: method as in earlier work; settings: supplement cites it as ref 8; cited from earlier work
T1 construct: expressed in transfected cells; host or cells: HEK293, transiently transfected
T1 sequence (Q9UL62 whole entry): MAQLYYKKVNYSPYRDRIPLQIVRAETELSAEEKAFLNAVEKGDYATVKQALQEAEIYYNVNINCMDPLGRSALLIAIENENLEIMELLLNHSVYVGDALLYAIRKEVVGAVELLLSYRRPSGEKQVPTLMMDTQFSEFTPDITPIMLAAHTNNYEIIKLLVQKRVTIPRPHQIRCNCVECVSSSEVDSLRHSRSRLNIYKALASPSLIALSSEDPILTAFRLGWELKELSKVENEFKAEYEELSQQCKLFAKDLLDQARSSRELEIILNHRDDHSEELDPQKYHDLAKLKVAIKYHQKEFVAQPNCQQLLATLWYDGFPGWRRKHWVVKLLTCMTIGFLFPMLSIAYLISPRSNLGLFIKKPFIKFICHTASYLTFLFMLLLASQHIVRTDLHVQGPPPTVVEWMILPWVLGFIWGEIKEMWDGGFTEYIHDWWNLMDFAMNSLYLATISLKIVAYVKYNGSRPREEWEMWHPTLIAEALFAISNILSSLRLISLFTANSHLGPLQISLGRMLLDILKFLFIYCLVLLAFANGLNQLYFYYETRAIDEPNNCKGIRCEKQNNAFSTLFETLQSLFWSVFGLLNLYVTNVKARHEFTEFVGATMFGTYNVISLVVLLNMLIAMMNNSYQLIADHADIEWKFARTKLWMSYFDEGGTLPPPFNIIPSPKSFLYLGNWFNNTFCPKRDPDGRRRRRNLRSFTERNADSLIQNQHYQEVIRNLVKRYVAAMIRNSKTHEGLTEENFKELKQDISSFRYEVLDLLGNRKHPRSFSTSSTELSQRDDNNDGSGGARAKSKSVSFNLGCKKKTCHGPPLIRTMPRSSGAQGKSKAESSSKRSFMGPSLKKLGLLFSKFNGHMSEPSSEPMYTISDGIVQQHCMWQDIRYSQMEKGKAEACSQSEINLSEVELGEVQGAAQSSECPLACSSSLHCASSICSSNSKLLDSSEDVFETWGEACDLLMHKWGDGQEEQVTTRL
T1 sequence (P48995 whole entry partner): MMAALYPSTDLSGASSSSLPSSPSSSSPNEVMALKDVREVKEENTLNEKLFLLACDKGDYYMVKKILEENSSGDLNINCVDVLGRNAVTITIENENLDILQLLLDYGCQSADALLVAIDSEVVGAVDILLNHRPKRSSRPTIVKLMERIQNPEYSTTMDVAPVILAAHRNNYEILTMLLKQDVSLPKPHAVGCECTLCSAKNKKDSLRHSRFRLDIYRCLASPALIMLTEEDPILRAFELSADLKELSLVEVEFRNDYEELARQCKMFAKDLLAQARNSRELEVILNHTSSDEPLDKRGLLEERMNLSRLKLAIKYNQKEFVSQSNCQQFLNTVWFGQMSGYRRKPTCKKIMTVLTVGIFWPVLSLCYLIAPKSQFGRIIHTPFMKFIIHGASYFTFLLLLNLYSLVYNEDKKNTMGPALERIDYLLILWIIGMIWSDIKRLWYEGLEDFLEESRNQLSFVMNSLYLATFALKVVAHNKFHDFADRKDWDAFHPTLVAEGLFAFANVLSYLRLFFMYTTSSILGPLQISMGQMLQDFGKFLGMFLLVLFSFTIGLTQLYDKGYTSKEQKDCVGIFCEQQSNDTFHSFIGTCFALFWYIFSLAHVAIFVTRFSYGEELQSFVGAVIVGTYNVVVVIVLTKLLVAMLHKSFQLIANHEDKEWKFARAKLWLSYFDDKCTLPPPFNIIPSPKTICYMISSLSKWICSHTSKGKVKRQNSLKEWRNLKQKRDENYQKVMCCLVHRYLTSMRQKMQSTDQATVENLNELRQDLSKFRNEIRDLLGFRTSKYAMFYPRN

[2] = test system: Th+ neurons of Th-GCaMP6f-ΔTrpc5 mice; experiment: GCaMP6f Ca2+ imaging of Th+ neurons in arcuate nucleus brain slices with 355 nm photoswitching, Th-GCaMP6f-ΔTrpc5 (5ko) mice
Excerpt: slices through the ARC of mice expressing the Ca2+ indicator GCaMP6f in Th+ neurons (Fig. 4),
we investigated (1) whether Ca2+ responses at endogenous TRPC5 expression levels can be
TRPC5 expression using TRPC5-deficient brain slices, (3) whether a dose dependence could be
detected, and (4) whether there are properties in channel activity that can be distinguished between
concentration-response measurements (Fig. 5d).

[3] = molecular target: T2, EA-activated TRPC4 (Mus musculus, UniProt Q9QUQ5); experiment: FLIPR Ca2+ assay, E isomers silencing EA-activated TRPC4 (HEK293-mTRPC4β-YFP); type: cell-based
T2 construct: expressed in transfected cells; host or cells: HEK293-mTRPC4β-YFP
T2 sequence (Q9QUQ5 1-890 isoform Q9QUQ5-2): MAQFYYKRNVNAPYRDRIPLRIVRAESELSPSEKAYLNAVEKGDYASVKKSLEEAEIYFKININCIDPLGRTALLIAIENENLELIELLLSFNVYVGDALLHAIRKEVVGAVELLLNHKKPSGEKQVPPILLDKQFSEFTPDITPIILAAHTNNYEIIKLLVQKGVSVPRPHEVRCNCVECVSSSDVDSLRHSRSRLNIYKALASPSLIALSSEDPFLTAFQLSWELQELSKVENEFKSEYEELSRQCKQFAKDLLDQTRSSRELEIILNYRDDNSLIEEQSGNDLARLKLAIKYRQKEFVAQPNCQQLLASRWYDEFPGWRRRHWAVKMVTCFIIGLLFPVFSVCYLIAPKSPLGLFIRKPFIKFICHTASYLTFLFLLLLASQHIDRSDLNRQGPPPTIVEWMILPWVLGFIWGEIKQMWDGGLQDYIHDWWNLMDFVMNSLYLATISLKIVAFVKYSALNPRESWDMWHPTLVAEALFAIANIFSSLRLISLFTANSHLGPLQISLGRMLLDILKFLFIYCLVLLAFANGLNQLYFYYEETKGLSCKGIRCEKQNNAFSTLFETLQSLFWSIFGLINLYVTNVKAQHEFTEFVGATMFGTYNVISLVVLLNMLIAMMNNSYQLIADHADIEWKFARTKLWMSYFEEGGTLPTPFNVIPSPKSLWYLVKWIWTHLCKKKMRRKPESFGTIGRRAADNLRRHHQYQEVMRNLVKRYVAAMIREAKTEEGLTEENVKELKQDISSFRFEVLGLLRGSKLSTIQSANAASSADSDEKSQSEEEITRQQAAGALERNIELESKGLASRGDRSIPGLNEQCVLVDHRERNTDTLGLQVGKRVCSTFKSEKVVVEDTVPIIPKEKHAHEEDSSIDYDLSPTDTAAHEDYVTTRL
Excerpt: (2) The EC50 values are reported as the midpoints of unconstrained sigmoidal fits to the FLIPR data (Fig 1l and Supplementary Fig. 2): with different levels of channel activation / blocking and very different Hill slopes across different compounds, isomers, and the two channels. This argues that the midpoint values only capture one of the several important factors describing the […]
We believe that it is possible to derive indicative relative values for binding affinity comparing the E and Z isomers of the same compound using only the combination of FLIPR and ephys data as reported in this paper; this analysis is being developed in a separate paper (see also below).
Supplementary Table 1. Potencies on TRPC4/5 depicted as either simple agonistic potency (blue) or else inhibitory […]
. Z*-values refer to mostly-Z-isomer reached at PSS at 365 nm, E*-values refer to experiments that initially applied 100% E-isomer (thermally relaxed), though in both cases the Ca2+ imaging in FLIPR with Fluo4-AM uses 470 nm excitation, which may over time promote photoswitching towards a PSS that is intermediate between those of pure-365 nm and all-E; this is controlled for in the more reliable ephys measurements). (Table indices: a, data from ref7; b, data from ref2; c, data from ref3; d, data from ref8.) EC50 [nM] (for simple agonism or EA-competitive inhibition)
E-AzPico 90 (vs 30 nM EA) 67 (vs 30 nM EA) […]
orange: inhibitory effect ag.: agonistic effect
1.1.1 From always-active antagonists and agonists towards efficacy photoswitches […]
photoisomerising an azobenzene that is merged in at the C’4 position yielding the compounds […]
deliver (Fig. 1-2) is a powerful support for an efficacy switch interpretation. To indirectly support this further, we also measured the effects of E-AzPico and E-AzHC against EA-activated TRPC4/5. […]
to be an EA-competitive binder5,9,10), so their efficacy as single agent photoswitches results from E/Z-competitive binding that is determined by their PSS. […]
Supplementary Table 2. […] (a Inhibitory effect measured against 30 nM EA; b Inhibitory effect measured against 50 nM EA). […]

SMILES: Cn1c(=O)n(CCCO)c(=O)c2c1nc(Oc1ccc(Cl)c(OC(F)(F)F)c1)n2Cc1ccc(Cl)cc1 [AM237, reference compound]
Activation of heteromeric TRPC1:TRPC5 [1]: does not activate

SMILES: Cn1c(=O)n(CCCO)c(=O)c2c1nc(Oc1ccc(N=Nc3ccccc3)c(Cl)c1)n2Cc1ccc(Cl)cc1 [AzHC]
Ca2+ photoresponse in TRPC5-knockout slices ([2]; 500 nM, 355 nm pulse): did not respond
Change in spontaneous Ca2+ activity in TRPC5-deficient Th+ neurons vs before UV ([2]; 1 µM): no change

IC50 ([3]; Inhibitory IC50 (versus 30 nM EA) TRPC4, E isomer, thermally relaxed, 30 nM EA): 90 nM
IC50 ([3]; Inhibitory IC50 (versus 50 nM EA) TRPC4, E isomer, 50 nM EA): 86 nM
SMILES: Cn1c(=O)n(CCCO)c(=O)c2c1nc(Oc1ccc(/N=N/c3ccccc3)c(OC(F)(F)F)c1)n2Cc1ccc(Cl)cc1 [E-AzPico]
